Experiment [1] has as its system HUVECs. The experiment in a line: NO production in HUVECs. The experiment is classed as cell-based, human. Particulars: 24 h; for NO level: control 34.41 ± 1.27.
For experiment [2], the system named is HUVECs. The experiment in a line: ET-1 secretion of HUVECs. It is filed as cell-based, human. Conditions: 24 h; for ET-1 secretion: control 118.68 ± 0.53. The text has this: Skipjack tuna (K. pelamis) muscle was provided by Ningbo Today Food Co., Ltd (China). Sephadex G-25 resins and NO assay kit (Nitrate reductase approach, A012-1) were purchased from Nanjing Jiancheng Bioengineering Institute (China). ET-1 ELISA Kit (HM10108) was purchased from Shanghai Qiaodu Biotechnology Co. Ltd. (China).Trypsase (≥20,000 U/g), pepsase (≥500,000 U/g), papain (≥400,000 U/g), ACE (A6778) and N-[3-(2-Furyl) acryloyl]-Phe-Gly-Gly (FAPGG, F713) were purchased from Sigma-Aldrich (Shanghai) Trading Co., Ltd. (China). […] ACEi Peptides of (TMAP1-TMAP6) with purity higher than 98% were synthesized in Shanghai Apeptide Co. Ltd. (China).
The NO and ET-1 contents of HUVECs were determined after a 24 h treatment of ACEi peptides. […] NO and ET-1 production in treated cells were measured by employing human NO and ET-1 assay kit as manufactures’ protocol, separately.

The target of experiment [3] is T1, ACE (Oryctolagus cuniculus, UniProt P12822).
T1 construct: purchased Sigma-Aldrich (Shanghai) Trading Co., Ltd. A6778
T1 sequence (P12822 34-1310): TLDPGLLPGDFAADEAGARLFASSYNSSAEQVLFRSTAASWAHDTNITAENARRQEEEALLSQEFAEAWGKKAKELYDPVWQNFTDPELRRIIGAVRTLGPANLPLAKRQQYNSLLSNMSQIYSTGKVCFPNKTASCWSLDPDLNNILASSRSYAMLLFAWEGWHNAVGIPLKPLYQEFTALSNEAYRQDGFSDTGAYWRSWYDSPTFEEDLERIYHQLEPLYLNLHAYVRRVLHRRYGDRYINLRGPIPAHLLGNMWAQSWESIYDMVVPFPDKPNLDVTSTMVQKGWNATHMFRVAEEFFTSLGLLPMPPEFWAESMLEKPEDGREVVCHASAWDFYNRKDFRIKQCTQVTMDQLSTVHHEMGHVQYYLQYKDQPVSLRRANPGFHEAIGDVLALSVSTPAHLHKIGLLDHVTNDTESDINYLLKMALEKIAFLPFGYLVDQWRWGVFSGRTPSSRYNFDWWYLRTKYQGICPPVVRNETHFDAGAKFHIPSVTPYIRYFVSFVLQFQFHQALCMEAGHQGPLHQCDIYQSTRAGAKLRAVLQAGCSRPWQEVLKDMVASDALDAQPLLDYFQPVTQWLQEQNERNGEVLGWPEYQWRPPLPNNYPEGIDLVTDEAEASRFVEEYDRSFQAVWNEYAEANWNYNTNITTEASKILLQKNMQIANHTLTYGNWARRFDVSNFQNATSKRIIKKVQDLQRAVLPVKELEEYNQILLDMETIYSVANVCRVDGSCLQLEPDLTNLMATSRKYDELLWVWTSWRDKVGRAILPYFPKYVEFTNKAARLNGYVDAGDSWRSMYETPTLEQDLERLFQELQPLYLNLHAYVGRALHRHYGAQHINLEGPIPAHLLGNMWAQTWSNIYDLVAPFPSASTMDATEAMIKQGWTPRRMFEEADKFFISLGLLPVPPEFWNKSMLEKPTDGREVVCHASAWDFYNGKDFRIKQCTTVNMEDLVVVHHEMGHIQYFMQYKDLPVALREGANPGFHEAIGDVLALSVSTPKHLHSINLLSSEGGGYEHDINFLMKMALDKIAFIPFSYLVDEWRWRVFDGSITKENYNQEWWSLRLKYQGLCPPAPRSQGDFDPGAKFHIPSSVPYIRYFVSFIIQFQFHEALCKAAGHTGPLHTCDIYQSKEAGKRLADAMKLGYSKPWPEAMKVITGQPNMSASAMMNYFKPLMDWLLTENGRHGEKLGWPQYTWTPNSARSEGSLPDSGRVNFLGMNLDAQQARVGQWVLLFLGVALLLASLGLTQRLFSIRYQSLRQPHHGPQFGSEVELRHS
Conditions: cited from earlier work. The text has this:
Among these peptides, ACEi peptides represent a promising alternative to synthetic drugs to control hypertension. For instance, canary seed peptides (CSP) have great potential as anti-hypertensive and anti-obesity agents due to their inhibition activity on ACE and pancreatic lipase, and their non-competitive inhibitory activity was due to their destabilization of the transition state and Zn(II) coordination in ACE [13]. […] Auwal et al. illustrated that branched aliphatic or dicarboxylic amino acids (Val, Ala, Ile, and Leu) at the N-terminus could strengthen ACEi ability of peptides. Then, Val residue at the N-terminus of TMAP2 could improve its ACEi ability. […] Therefore, Ser residue, especially its hydroxyl group, should play a vital effect in the ACEi capability of ...

The target in experiment [4] is T1, ACE. Also on record: method as in 3 sources, ref 47 = [47]; doi:10.1016/j.lwt.2016.08.047; 47. Wang X. Chen H. Fu X. Li S. Wei J. A novel antioxidant and ACE inhibitory peptide from rice bran protein: Biochemical characterization and molecular docking study LWT-Food Sci.Technol. 2017 75 93 ||| ref 12 = [12]; PMID 31353484; doi:10.1111/jfbc.12572; 12. Fan H. Liao W. Wu J. Molecular interactions, bioavailability, and cellular mechanisms of angiotensin-converting enzyme inhibitory peptides J. Food Biochem. 2019 43 e12572 10.1111/jfbc.12572 313534 ||| ref 51 = [51]; PMID 28873590; doi:10.1016/j.foodchem.2017.06.112; 51. Abdelhedi O. Nasri R. Mora L. Jridi M. Toldra F. Nasri M. In silico analysis and molecular docking study of angiotensin I-converting enzyme inhibitory peptides from smooth-hound viscera protein hy. Particulars: docking; cited from earlier work.

The target in experiment [5] is T2, angiotensin-I-converting enzyme (ACE) (UniProt P12822).
T2 sequence: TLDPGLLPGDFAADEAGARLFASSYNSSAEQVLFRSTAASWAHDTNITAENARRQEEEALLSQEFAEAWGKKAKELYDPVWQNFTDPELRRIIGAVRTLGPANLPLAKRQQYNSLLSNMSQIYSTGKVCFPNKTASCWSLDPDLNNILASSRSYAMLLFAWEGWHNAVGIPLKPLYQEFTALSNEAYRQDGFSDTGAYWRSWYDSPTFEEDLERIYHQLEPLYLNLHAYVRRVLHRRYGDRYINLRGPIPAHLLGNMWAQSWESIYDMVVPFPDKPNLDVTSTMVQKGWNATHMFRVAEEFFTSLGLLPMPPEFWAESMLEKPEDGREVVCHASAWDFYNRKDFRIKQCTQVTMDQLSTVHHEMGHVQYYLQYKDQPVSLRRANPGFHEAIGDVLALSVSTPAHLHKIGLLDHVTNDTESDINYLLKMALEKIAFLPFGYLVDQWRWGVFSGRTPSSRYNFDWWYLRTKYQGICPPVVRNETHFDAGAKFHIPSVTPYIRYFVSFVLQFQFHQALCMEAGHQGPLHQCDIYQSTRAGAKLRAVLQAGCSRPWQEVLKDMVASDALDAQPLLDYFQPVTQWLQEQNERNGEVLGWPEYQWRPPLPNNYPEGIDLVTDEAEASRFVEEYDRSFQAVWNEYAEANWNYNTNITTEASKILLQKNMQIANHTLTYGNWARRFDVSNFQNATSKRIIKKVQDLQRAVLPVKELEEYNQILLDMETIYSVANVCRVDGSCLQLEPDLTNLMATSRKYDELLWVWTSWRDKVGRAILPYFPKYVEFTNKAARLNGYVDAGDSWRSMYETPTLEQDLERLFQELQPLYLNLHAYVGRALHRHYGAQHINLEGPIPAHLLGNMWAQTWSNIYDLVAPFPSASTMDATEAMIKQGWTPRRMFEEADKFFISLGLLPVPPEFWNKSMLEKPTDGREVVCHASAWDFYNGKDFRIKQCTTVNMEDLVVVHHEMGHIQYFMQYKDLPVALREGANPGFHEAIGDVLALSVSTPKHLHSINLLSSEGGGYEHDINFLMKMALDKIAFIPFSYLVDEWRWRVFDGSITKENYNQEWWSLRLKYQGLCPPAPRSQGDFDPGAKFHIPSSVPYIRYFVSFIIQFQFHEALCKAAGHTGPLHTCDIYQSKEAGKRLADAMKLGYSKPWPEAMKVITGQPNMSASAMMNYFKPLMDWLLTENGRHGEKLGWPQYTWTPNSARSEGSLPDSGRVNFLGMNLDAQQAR

Like-named read-outs stand apart in the source and are kept apart here. Where a SMILES comes first, the peptide text is derived from it.

Take `C[C@H](CS)C(=O)N1CCC[C@H]1C(=O)O` [Cap, captopril]: the NO level in experiment [1] (Cap positive control (1 μM per method), p < 0.001) turned out to be 65.96 ± 1.83 μmol/gprot. The molecule further yielded an ET-1 secretion in experiment [2] (0.5 μM Cap, p < 0.001) of 84.16 ± 1.18 pg/mL. In the case of `NC[C@H](O)c1ccc(O)c(O)c1` [NE, norepinephrine], the NO level in experiment [1] (NE 0.5 μM, p < 0.001) came out at 24.25 ± 0.63 μmol/gprot. This molecule came in with an ET-1 secretion in experiment [2] (NE 0.5 μM, p < 0.01) of 140.23 ± 5.81 pg/mL.

As for `N[C@@H](CO)C(=O)N1CCC[C@H]1C(=O)O` [TMAP1, Ser-Pro] (H-Ser-Pro-OH), the “reversal of NE-reduced NO content” value in experiment [1] (200 μM peptide with NE (0.5 μM), p < 0.001 vs NE) is “partially offset”. The same molecule displayed an NO level in experiment [1] (400 μM, p < 0.001) of 57.25 ± 2.31 μmol/gprot. For the same molecule, the “NO level vs control group” value in experiment [1] (100, 200 and 400 μM, p < 0.001) is on record as “significantly increased”. The “ET-1 secretion with NE” value in experiment [2] (200 μM peptide with NE (0.5 μM), NE alone 140.23 ± 5.81, p < 0.01) worked out at 114.08 ± 5.82 pg/mL. The same molecule yielded an ET-1 secretion in experiment [2] (400 μM) of 94.86 ± 0.39 pg/mL. In experiment [2] (tested concentrations (100–400 μM), p < 0.001 or p < 0.01), the “ET-1 secretion vs control group” value is “decreased”. For orientation: IC50 means the point on the concentration scale where inhibition reaches its midpoint. As for “AGPPGSDGQPGA [ACEi peptide from lizardfish]”, the IC50 in experiment [3] (lizardfish peptide) was 544 µg/mL. Take “ALPMHIR [larger peptide composed of 7–11 amino acid residues]”: in experiment [4], the “interaction with ACE channel / active site” value is on record as “showed low interaction scores”.

For the molecule “AVVPPSDKM [larger peptide composed of 7–11 amino acid residues]”, in experiment [4], the “interaction with ACE channel / active site” value is “showed low interaction scores”. In the case of EHPVL [ACEi peptide from stone fish], the IC50 in experiment [3] (stone fish peptides) was 1680 µM. In the case of EVLIQ [ACEi peptide from stone fish], the IC50 in experiment [3] (stone fish peptides) is 1440 µM. As to “GPAGPRGPAG [larger peptide composed of 7–11 amino acid residues]”, the “interaction with ACE channel / active site” value in experiment [4] is given as “showed low interaction scores”. With “HWTTQR [ACEi peptide from seaweed pipefish]”, in experiment [3] (seaweed pipefish peptide), the concentration for half-maximal inhibition (IC50) is 1440 µM. LAPPTM [ACEi peptide from stone fish]: in experiment [3] (stone fish peptides), the IC50 is 1310 µM.

For LGPLGHQ [ACEi peptide from skate], in experiment [3] (skate peptides), the 50% inhibitory concentration (IC50) was 4.22 µM.

Consider MVGSAPGVL [ACEi peptide from skate], for which, in experiment [3] (skate peptides), the IC50 is 3.09 µM. Phe-Glu-Met (FEM) (peptide) showed an IC50 of ACE inhibitory (ACEi) activity; enzyme assay with FAPGG as substrate, Tris-HCl 50 mM pH 8.3, 300 mM NaCl, 37 °C, product measured by HPLC in experiment [5] of 2.18 mg/mL.

SPRCR [ACEi peptide with Ser residue]: the 50% inhibitory concentration (IC50) in experiment [3] was 41 µM. In turn, Ser-Pro (SP) (peptide) returned an IC50 of ACE inhibitory (ACEi) activity; enzyme assay with FAPGG as substrate, Tris-HCl 50 mM pH 8.3, 300 mM NaCl, 37 °C, product measured by HPLC in experiment [5] of 0.06 mg/mL. With “TTMYPGIA [larger peptide composed of 7–11 amino acid residues]”, the “interaction with ACE channel / active site” value in experiment [4] is recorded as “showed low interaction scores”.

Consider Tyr-Glu (YE) (peptide), for which the IC50 of ACE inhibitory (ACEi) activity; enzyme assay with FAPGG as substrate, Tris-HCl 50 mM pH 8.3, 300 mM NaCl, 37 °C, product measured by HPLC in experiment [5] stood at 0.8 mg/mL. Turning to “VKPLPQSG [larger peptide composed of 7–11 amino acid residues]”, the “interaction with ACE channel / active site” value in experiment [4] was “showed low interaction scores”.

VSQLTR [ACEi peptide with Ser residue]: the half-maximal inhibitory concentration (IC50) in experiment [3] is 105 µM. Turning to VDRYF [Val-Asp-Arg-Tyr-Phe (VDRYF)], the IC50 of ACE inhibitory (ACEi) activity; enzyme assay with FAPGG as substrate, Tris-HCl 50 mM pH 8.3, 300 mM NaCl, 37 °C, product measured by HPLC in experiment [5] turned out to be 0.28 mg/mL. Take FWRV [Phe-Trp-Arg-Val (FWRV)]: the IC50 of ACE inhibitory (ACEi) activity; enzyme assay with FAPGG as substrate, Tris-HCl 50 mM pH 8.3, 300 mM NaCl, 37 °C, product measured by HPLC in experiment [5] came out at 0.76 mg/mL.

For VHGVV [Val-His-Gly-Val-Val (VHGVV)], in experiment [5], the IC50 of ACE inhibitory (ACEi) activity; enzyme assay with FAPGG as substrate, Tris-HCl 50 mM pH 8.3, 300 mM NaCl, 37 °C, product measured by HPLC turned out to be 0.9 mg/mL.

(Values after publication PMC8954214, “Preparation, Identification, Molecular Docking Study and Protective Function on HUVECs of Novel ACE Inhibitory Peptides from Protein Hydrolysate of Skipjack Tuna Muscle” (Marine Drugs, 2022).)
